# Laboratory results as given in US8835629B2, “Anti-cancer agents” (The Walter and Eliza Hall Institute of Medical Research, priority 2010, dated 2014).
# “Also recorded” adds a separate entry of the source.
# What was measured:
# [1] = Dose escalation in mice (tolerability and toxicity); format: in vivo
# Procedure: Compound 1 was initially tested for tolerability and toxicity in mice. C57Bl/6 mice (aged 8-12 weeks) were injected subcutaneously with escalating doses of Compound 1 in a constant volume of DMSO. Mice were sacrificed 24 hrs post-injection. There were no adverse effects of doses up to 80 mg/kg within this time-frame. Thus the compound is well tolerated at doses that far exceed the IC50 observed “in vitro”.
# These minor skin lesions healed readily within 2-3 days.
# LIM 2537 = assay: MTT cell proliferation assay, LIM 2537; format: cell-based; settings: 72 h; LIM 2537 human colorectal carcinoma; MTT after 3 days of incubation; read-out: IC50, inhibition of proliferation
# Procedure: (§1) Compound 2 was tested on a series of cell lines to determine its activity and selectivity (Table 2). Cell proliferation was measured using the MTT assay (for protocol see Example 2.6) after 3 days of incubation with the inhibitor.
# (§2) • Cells plated at […] in 100 μl medium+5% FCS (+Adds^1): • Cells incubated overnight: • Titrate inhibitors in a fresh plate in 150 μl medium • Transfer 100 μl titrated compounds to matching wells of the cell plate. • Incubate a further 4 days: • Add 10 μl MTS^2 or MTT^3 for 1.5 to 2 hours and read on Multiscanner (wavelengths 492/690) ^1 Additives for culture of LIM cell lines: 10 μM thioglycerol, 0.025 U/ml insulin, 1 μg/ml hydrocortisone. ^2 3-(4,5-dimethylthiazol-2-yl)-5-(3-carboxymethoxyphenyl)-2-(4-sulfophenyl)-2H-tetrazolium. ^3 3-(4,5-Dimethylthiazol-2-yl)-2,5-diphenyltetrazolium bromide
# (§3) Cells are trypsinized and washed ×2 in medium+5% FCS and plate out at 10^4 cells per well in 100 μl.
# (§4) Incubate plates o/n 37° C.+5%-10% CO2 incubator.
# (§5) Inhibitors are dissolved in DMSO to make 10 mM stocks and titrated in a 96 well plate in duplicate to use as the stock for the test plate. […]
# (§6) Read OD of plates on Thermo Multiskan Ex, at 560/690 nm.
# SW480 = assay: Antimitotic effects (G2/M cell cycle block, DNA staining, ModFit) on SW480; format: cell-based, human
# From the text: For the initial studies two colon carcinoma cell lines (LIM1215 and SW480) and two breast cancer cell lines (MDA-MB-231 and MCF-7) were used. Taxol was used as comparator in these experiments (Table 1).
# LIM 1215 = assay: MTT cell proliferation assay, LIM 1215; format: cell-based; settings: LIM1215, 72 h; LIM 1215 human colorectal carcinoma; MTT after 3 days of incubation; read-out: IC50, inhibition of proliferation
# Procedure: as §1, §2, §3, §4, §5, §6
# [2] = test system: LIM 2537 (colon carcinoma cell line) tumors; assay: Tumor xenograft study with LIM 2537 cells; format: in vivo, BALB/c nude mice; settings: 15 mg/kg SC
# Procedure: FIG. 7: LIM2537 tumor growth in nude mice. Tumor diameters were measured with external calipers every three days and tumor volume calculated with the formula: π/6×(L×W^2).
# The mice were inoculated with 3×10^6 cells per tumor in 100 μl PBS, one tumor on each flank subcutaneously (SC). Treatments were started on the third day after inoculation with either vehicle control (VC) or 100 μl of drug at 3 mg/ml in aqueous solution giving a dose of 15 mg/kg. Mice were injected SC in the abdomen, three times per week for the duration of the experiment. The mice were monitored for body weight, tumor volume and appearance, and for any adverse reactions to the drug. The experiment was terminated after 33 days and the control group euthanized, as the tumor burden in that group had reached the maximum allowed. The remaining mice were then left without treatment for a further 9 days to monitor resumption of tumor growth.
# [3] = Pharmacokinetics of Compound 2 in mouse plasma (RP-HPLC); format: in vivo; settings: mice
# Procedure: FIG. 6: Plots of plasma concentrations of compound 2 in mice following a single subcutaneous dose of 50 mg/kg. Each point corresponds to an individual mouse. A: Semi-log plot of calculated concentrations of Peak 1 values. B: Semi-log plot of values including all metabolite peaks. C: Mean and se values comparing Peak 1 only with all peaks.
# The pharmacokinetic parameters for Compound 2 were determined following injection into mice.
# Mouse blood was collected by cardiac puncture after anaesthesia by CO2 gas. Mice were subsequently euthanized. The blood was transferred to an EDTA tube to prevent clotting and the plasma collected after separation by centrifugation. For each sample 25 μl Plasma Was Added To 75 μl Cold 0.1% TFA (v/v) With 5 μM Hydrocortisone (HC) As an internal standard. These processed samples were stored at −20° C. until required. On thawing they were clarified by centrifugation and the extracts were analyzed on RP-HPLC.
# Each 100 μl plasma extract was separated on a Zorbax SB-C18, 2.1×150 mm, 5μ column using a linear 50 min gradient of acetonitrile in 0.1% (v/v) TFA at a flow rate of 0.1 ml per minute and a column temperature of 45° C. Detection was at 250 nm.
# The concentration of drug in the plasma was determined by the internal standard method of calibration by comparing the ratios of drug to HC peak areas relative to the known standards. Plasma concentrations of compound 2 in the mice from one pharmacokinetics experiment are plotted in FIG. 6
compound,measurement,setting,value
"COc1ccc(CNc2nc(NCc3ccc(CN)cc3)nc(NN3CC(=O)NC3=O)n2)cc1 (single isomer, unassigned) [Compound 2, 1-[4-(4-aminomethyl-benzylamino)-6-(4-methoxybenzylamino)-{1,3,5}-triazin-2-yl-amino]-imidazolidine-2,4-dione]",Time for healing of minor skin lesions,"[1]; BALB/c nude, mouse, in vivo, 20 mg/kg",2 to 3 days
same,Effect at injection site,[1]; at 21.5 and 64.5 mg/kg,indications of skin thinning at the injection site in some mice
same,Doses with no adverse effects in outward health or behaviour,"[1]; mice, for 4 days",up to 64.5 mg/kg
same,Skin effect in BALB/c nude mice,"[1]; mouse, in vivo, 20 mg/kg",some skin lesions
same,IC50,LIM 2537,0.07 µM
same,% of Taxol (proportion of cells in G2M test/proportion of cells in G2M Taxol),"SW480; 24 hrs, standard 1 μM Taxol",113%
same,IC50,"SW480; Homo sapiens, inhibitors added to cells in log-growth for 24 hrs, read-out: IC50 for progression through the cell cycle",0.25 µM
same,IC50,LIM 1215,0.09 µM
same,Tumor growth (tumor volume),"[2]; 3 injections per week from day 3, 33 days",significantly reduced the rate of growth of the tumors; also recorded: successful in slowing the growth of LIM 2537 cells
same,Mouse body weights,[2]; three times per week,not affected
same,Adverse reaction to the drug,"[2]; three times per week, aqueous formulation",no long term adverse reaction
same,Time therapeutically significant concentrations are maintained in the serum,[3],up to 10 hr
same,Plateau concentration in the blood stream,"[3]; 50 mg/kg in aqueous solution, single subcutaneous dose",60 µM
same,Level remaining in the blood stream for 6-10 hours,"[3]; 50 mg/kg in aqueous solution, for 6-10 hours",up to 6 μM
same,half-life,"[3]; mouse, plasma, subcutaneous, 50 mg/kg in aqueous solution, read-out: Elimination half-life (converted)",~1.5 h
